Assay results reported in US10405547B2, “Substituted cyclic amides as herbicides” (FMC Corporation, priority 2015, dated 2019).

Columns and labels:
Assay type in all cases: in vivo
[1] = test system: blackgrass (Alopecurus myosuroides); test: Test A postemergence, blackgrass; settings: visual injury, 0 to 100 scale (0 no effect, 100 complete control), approximately 10 days
Description: (§1) Test A Seeds of plant species selected from barnyardgrass (Echinochloa crus-galli), kochia (Kochia scoparia), ragweed (common ragweed, Ambrosia elatior), ryegrass, Italian (Lolium multiflorum), foxtail, giant (Setaria faberii), and pigweed (Amaranthus retroflexus), were planted into a blend of loam soil and sand and treated preemergence with a directed soil spray using test chemicals formulated in a non-phytotoxic solvent mixture which included a surfactant.
(§2) At the same time, plants selected from these weed species and also blackgrass (Alopecurus myosuroides), galium (catchweed bedstraw, Galium aparine), wheat (Triticum aestivum), and corn (Zea mays) were planted in pots containing the same blend of loam soil and sand and treated with postemergence applications of test chemicals formulated in the same manner. Plants ranged in height from 2 to 10 cm and were in the one- to two-leaf stage for the postemergence treatment. Treated plants and untreated controls were maintained in a greenhouse for approximately 10 days, after which time all treated plants were compared to untreated controls and visually evaluated for injury. Plant response ratings, summarized in Table A, are based on a 0 to 100 scale where 0 is no effect and 100 is complete control. A dash (-) response means no test result.

[2] = test system: barnyardgrass (Echinochloa crus-galli); test: Test A postemergence, barnyardgrass; settings: visual injury, 0 to 100 scale (0 no effect, 100 complete control), approximately 10 days
Description: as §1, §2

kochia (Kochia scoparia) [3] = test: Test A preemergence, kochia; settings: 0 to 100 scale (0 no effect, 100 complete control)
Description: as §1, §2

kochia (Kochia scoparia) [4] = test: Test A postemergence, kochia; settings: visual injury, 0 to 100 scale (0 no effect, 100 complete control), approximately 10 days
Description: as §1, §2

[5] = test system: pigweed (Amaranthus retroflexus); test: Test A preemergence, pigweed; settings: 0 to 100 scale (0 no effect, 100 complete control)
Description: as §1, §2

[6] = test system: galium (catchweed bedstraw, Galium aparine); test: Test A postemergence, galium; settings: visual injury, 0 to 100 scale (0 no effect, 100 complete control), approximately 10 days
Description: as §1, §2

[7] = test system: ryegrass, Italian (Lolium multiflorum); test: Test A preemergence, Italian ryegrass; settings: 0 to 100 scale (0 no effect, 100 complete control)
Description: as §1, §2

[8] = test system: foxtail, giant (Setaria faberii); test: Test A postemergence, giant foxtail; settings: visual injury, 0 to 100 scale (0 no effect, 100 complete control), approximately 10 days
Description: as §1, §2

[9] = test system: wheat (Triticum aestivum); test: Test A postemergence, wheat; settings: visual injury, 0 to 100 scale (0 no effect, 100 complete control), approximately 10 days
Description: as §1, §2

[10] = test system: ragweed (common ragweed, Ambrosia elatior); test: Test A postemergence, ragweed; settings: visual injury, 0 to 100 scale (0 no effect, 100 complete control), approximately 10 days
Description: as §1, §2

[11] = test system: barnyardgrass (Echinochloa crus-galli); test: Test A preemergence, barnyardgrass; settings: 0 to 100 scale (0 no effect, 100 complete control)
Description: as §1, §2

corn (Zea mays) = test: Test A postemergence, corn; settings: visual injury, 0 to 100 scale (0 no effect, 100 complete control), approximately 10 days
Description: as §1, §2

[12] = test system: pigweed (Amaranthus retroflexus); test: Test A postemergence, pigweed; settings: visual injury, 0 to 100 scale (0 no effect, 100 complete control), approximately 10 days
Description: as §1, §2

[13] = test system: foxtail, giant (Setaria faberii); test: Test A preemergence, giant foxtail; settings: 0 to 100 scale (0 no effect, 100 complete control)
Description: as §1, §2

[14] = test system: ragweed (common ragweed, Ambrosia elatior); test: Test A preemergence, ragweed; settings: 0 to 100 scale (0 no effect, 100 complete control)
Description: as §1, §2

[15] = test system: ryegrass, Italian (Lolium multiflorum); test: Test A postemergence, Italian ryegrass; settings: visual injury, 0 to 100 scale (0 no effect, 100 complete control), approximately 10 days
Description: as §1, §2

| SMILES | Plant response rating, Blackgrass ([1]; 125 g ai/ha) | Plant response rating, Blackgrass ([1]; 500 g ai/ha) | Plant response rating, Barnyardgrass ([2]; 125 g ai/ha) | Plant response rating, Barnyardgrass ([2]; 500 g ai/ha) | Plant response rating, Kochia (kochia (Kochia scoparia) [3]; 125 g ai/ha) | Plant response rating, Kochia (kochia (Kochia scoparia) [3]; 500 g ai/ha) | Plant response rating, Kochia (kochia (Kochia scoparia) [4]; 125 g ai/ha) | Plant response rating, Kochia (kochia (Kochia scoparia) [4]; 500 g ai/ha) | Plant response rating, Pigweed ([5]; 125 g ai/ha) | Plant response rating, Pigweed ([5]; 500 g ai/ha) | Plant response rating, Galium ([6]; 125 g ai/ha) | Plant response rating, Galium ([6]; 500 g ai/ha) | Plant response rating, Ryegrass, Italian ([7]; 125 g ai/ha) | Plant response rating, Ryegrass, Italian ([7]; 500 g ai/ha) | Plant response rating, Foxtail, Giant ([8]; 125 g ai/ha) | Plant response rating, Foxtail, Giant ([8]; 500 g ai/ha) | Plant response rating, Wheat ([9]; 125 g ai/ha) | Plant response rating, Wheat ([9]; 500 g ai/ha) | Plant response rating, Ragweed ([10]; 125 g ai/ha) | Plant response rating, Ragweed ([10]; 500 g ai/ha) | further results |
| --- | --- | --- | --- | --- | --- | --- | --- | --- | --- | --- | --- | --- | --- | --- | --- | --- | --- | --- | --- | --- | --- |
| O=C1NCC(c2cccc(Cn3cccn3)c2)C1C(=O)Nc1ccc(F)c(F)c1F (stereo not drawn) [Compound 26] | 0 | 0 | 30 | 70 | 0 | 0 | 0 | 0 | 0 | 0 | 0 | 0 | 0 | 0 | 30 | 60 | 0 | 0 | 0 | 0 | Plant response rating, Barnyardgrass ([11]; 125 g ai/ha): 40; Plant response rating, Barnyardgrass ([11]; 500 g ai/ha): 90; Plant response rating, Corn (corn (Zea mays); 125 g ai/ha): 0; Plant response rating, Corn (corn (Zea mays); 500 g ai/ha): 0; Plant response rating, Pigweed ([12]; 125 g ai/ha): 0; Plant response rating, Pigweed ([12]; 500 g ai/ha): 0; Plant response rating, Foxtail, Giant ([13]; 125 g ai/ha): 40; Plant response rating, Foxtail, Giant ([13]; 500 g ai/ha): 90; Plant response rating, Ragweed ([14]; 125 g ai/ha): 0; Plant response rating, Ragweed ([14]; 500 g ai/ha): 0; Plant response rating, Ryegrass, Italian ([15]; 125 g ai/ha): 0; Plant response rating, Ryegrass, Italian ([15]; 500 g ai/ha): 0 |
| O=C1NCC(c2cccc(COc3ccccc3)c2)C1C(=O)Nc1ccccc1Cl (stereo not drawn) [Compound 18] | 0 | 0 | 0 | 20 | 0 | 0 | 0 | 0 | 0 | 0 | 0 | 0 | 0 | 0 | 0 | 0 | 0 | 0 | 0 | 0 | Plant response rating, Barnyardgrass ([11]; 125 g ai/ha): 0; Plant response rating, Barnyardgrass ([11]; 500 g ai/ha): 0; Plant response rating, Corn (corn (Zea mays); 125 g ai/ha): 0; Plant response rating, Corn (corn (Zea mays); 500 g ai/ha): 0; Plant response rating, Pigweed ([12]; 125 g ai/ha): 0; Plant response rating, Pigweed ([12]; 500 g ai/ha): 0; Plant response rating, Foxtail, Giant ([13]; 125 g ai/ha): 0; Plant response rating, Foxtail, Giant ([13]; 500 g ai/ha): 20; Plant response rating, Ragweed ([14]; 125 g ai/ha): 0; Plant response rating, Ragweed ([14]; 500 g ai/ha): 0; Plant response rating, Ryegrass, Italian ([15]; 125 g ai/ha): 0; Plant response rating, Ryegrass, Italian ([15]; 500 g ai/ha): 0 |
| O=C1NCC(c2cccc(Cn3cccn3)c2)C1C(=O)Nc1ccccc1Cl (stereo not drawn) [Compound 29] | 0 | 0 | 0 | 20 | 0 | 0 | 0 | 0 | 0 | 0 | 0 | 0 | 0 | 0 | 0 | 20 | 0 | 0 | 0 | 0 | Plant response rating, Barnyardgrass ([11]; 125 g ai/ha): 0; Plant response rating, Barnyardgrass ([11]; 500 g ai/ha): 40; Plant response rating, Corn (corn (Zea mays); 125 g ai/ha): 0; Plant response rating, Corn (corn (Zea mays); 500 g ai/ha): 0; Plant response rating, Pigweed ([12]; 125 g ai/ha): 0; Plant response rating, Pigweed ([12]; 500 g ai/ha): 0; Plant response rating, Foxtail, Giant ([13]; 125 g ai/ha): 0; Plant response rating, Foxtail, Giant ([13]; 500 g ai/ha): 40; Plant response rating, Ragweed ([14]; 125 g ai/ha): 0; Plant response rating, Ragweed ([14]; 500 g ai/ha): 0; Plant response rating, Ryegrass, Italian ([15]; 125 g ai/ha): 0; Plant response rating, Ryegrass, Italian ([15]; 500 g ai/ha): 0 |
